16 compounds from patent US20240270739A1, “Heteroaryl Fluoroalkenes As DGK Inhibitors” (Incyte Corporation, priority 2023, published 2024) can be followed below.

One assay deals with T1, DGKα (Homo sapiens, UniProt P23743).
T1 construct: His; purchased Signal Chem D21-10BH
The assay is described as follows: In vitro DGKα inhibition assay (ADP-Glo). The class given is biochemical. The settings on record: His-tagged human recombinant enzyme, 0.1 nM DGKα, 50 μM ATP, 20 μM DLG, 90 minute incubation. As to the method: (§1) The DGKα and DGKζ biochemical reactions were performed using His-tagged human recombinant enzymes (Signal Chem, DGKα, #D21-10BH; DGKζ, #D30-10H)) and DLG (Dilauroyl-sn-glycerol) lipid substrate (Signal Chem, #D430-59). ADP-Glo assay was performed using ADP-Glo™ kinase Assay kit (Promega, #V9104). The reactions were carried out in assay buffer containing 40 mM Tris, pH 7.5, 0.1% CHAPS, 0.1% Prionex, 40 mM NaCl, 5 mM MgCl2, 1 mM CaCl2, and 1 mM DTT. DGKα reactions contained 0.1 nM DGKα, 50 μM ATP, and 20 μM DLG. And DGKζ reactions contained 0.4 nM DGKζ, 30 μM ATP, and 20 μM DLG.
(§2) For compound inhibition studies, 40 nL test compound in DMSO was added to wells of white polystyrene plates in 384-well (Greiner, #784075) or 1536-well format (Greiner, #782075). Compounds were added with top concentration of 2 mM with 11 point, 3-fold dilution series. Enzyme solution (contains 2×DGK enzyme concentration in 1× assay buffer) was added to the plate in 2 μL/well volume, followed by 2 μL/well of substrate solution (contains 2× concentration of ATP and DLG substrate in 1× assay buffer). Plates were then centrifuged for 1 min at 1200 RPM and sealed or lidded. For 4 μL reaction volume, test compounds were therefore diluted 100× to final top concentration of […]. After 90 minute incubation, reactions were quenched by addition of 2 μL/well Promega ADP-Glo Reagent, followed by centrifugation and lidding. After 60 min incubation, 2 μL/well Promega Kinase Detection Reagent was added, plates centrifuged, and incubated for 30 min. Plates were then read using Luminescence method on BMG PHERAstar FSX plate reader. Percent inhibition was calculated and IC50s were determined using 4-parameter fit in Genedata Screener. Labcyte Echo acoustic dispenser was used for compound addition, and Formulatrix Tempest liquid handler was used for all reagent dispenses. The compounds of the disclosure were tested in one or more of the assays described above, and the resulting data are shown in Table A.
A general note: ADP-Glo turns the ADP formed in a reaction into a luminescent signal.

The target of the next assay is T2, DGKζ (Homo sapiens, UniProt Q13574).
T2 construct: His; purchased Signal Chem D30-10H
T2 sequence (Q13574 whole entry): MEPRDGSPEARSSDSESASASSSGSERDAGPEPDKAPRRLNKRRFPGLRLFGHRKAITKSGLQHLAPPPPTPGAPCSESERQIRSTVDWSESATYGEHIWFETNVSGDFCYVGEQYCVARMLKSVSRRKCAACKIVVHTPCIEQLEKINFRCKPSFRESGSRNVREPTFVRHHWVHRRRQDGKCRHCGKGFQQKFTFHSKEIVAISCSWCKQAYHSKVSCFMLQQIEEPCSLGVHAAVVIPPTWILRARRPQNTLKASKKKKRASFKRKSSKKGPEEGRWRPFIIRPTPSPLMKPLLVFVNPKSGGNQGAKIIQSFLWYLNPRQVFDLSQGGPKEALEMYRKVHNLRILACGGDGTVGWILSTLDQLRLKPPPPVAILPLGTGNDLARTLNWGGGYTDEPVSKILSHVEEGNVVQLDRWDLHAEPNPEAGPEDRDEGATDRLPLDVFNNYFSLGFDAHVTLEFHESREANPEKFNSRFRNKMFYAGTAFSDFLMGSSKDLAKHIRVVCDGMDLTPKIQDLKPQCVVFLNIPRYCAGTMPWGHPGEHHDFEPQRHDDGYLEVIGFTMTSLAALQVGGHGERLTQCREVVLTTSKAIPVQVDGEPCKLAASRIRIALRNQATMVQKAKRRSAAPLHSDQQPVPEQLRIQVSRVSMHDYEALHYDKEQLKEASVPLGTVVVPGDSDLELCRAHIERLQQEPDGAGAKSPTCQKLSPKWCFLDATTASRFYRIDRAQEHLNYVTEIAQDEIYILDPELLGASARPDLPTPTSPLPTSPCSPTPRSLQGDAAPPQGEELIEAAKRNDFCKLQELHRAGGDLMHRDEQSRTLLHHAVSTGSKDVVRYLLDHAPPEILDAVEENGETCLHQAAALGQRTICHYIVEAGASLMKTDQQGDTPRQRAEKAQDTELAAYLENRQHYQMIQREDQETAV
The assay is described as follows: In vitro DGKζ inhibition assay (ADP-Glo). It counts as biochemical. Particulars: His-tagged human recombinant enzyme, 0.4 nM DGKζ, 30 μM ATP, 20 μM DLG, 90 minute incubation. As to the method: as §1, §2

T1 sequence (P23743 whole entry): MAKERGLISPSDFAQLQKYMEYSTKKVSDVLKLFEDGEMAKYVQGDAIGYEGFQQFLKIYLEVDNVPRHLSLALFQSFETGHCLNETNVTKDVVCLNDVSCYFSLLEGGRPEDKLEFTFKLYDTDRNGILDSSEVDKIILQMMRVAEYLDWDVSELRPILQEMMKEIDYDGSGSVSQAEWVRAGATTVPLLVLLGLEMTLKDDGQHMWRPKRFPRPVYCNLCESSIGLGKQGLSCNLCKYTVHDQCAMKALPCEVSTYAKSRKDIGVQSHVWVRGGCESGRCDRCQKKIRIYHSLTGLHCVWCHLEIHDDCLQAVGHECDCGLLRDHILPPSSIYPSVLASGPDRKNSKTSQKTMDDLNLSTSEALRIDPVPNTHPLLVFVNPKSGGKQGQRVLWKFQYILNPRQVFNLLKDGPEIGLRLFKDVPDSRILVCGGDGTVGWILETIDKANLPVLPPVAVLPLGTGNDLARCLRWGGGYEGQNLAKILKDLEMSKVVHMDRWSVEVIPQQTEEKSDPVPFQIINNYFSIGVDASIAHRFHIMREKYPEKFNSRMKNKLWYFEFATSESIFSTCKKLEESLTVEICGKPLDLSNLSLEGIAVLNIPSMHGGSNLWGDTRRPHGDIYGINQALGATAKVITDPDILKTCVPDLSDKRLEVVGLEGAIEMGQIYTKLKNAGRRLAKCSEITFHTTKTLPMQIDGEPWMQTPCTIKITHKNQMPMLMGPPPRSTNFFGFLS

A word on the IC50: it is the midpoint of a concentration-inhibition curve. Consider `F/C(=C\c1ccc(Oc2cccc(F)c2F)c(C(F)(F)F)c1N1CCCC2(CCN(CC3CC3)CC2)C1)c1ccn(-c2ccnnc2)n1` [Example 10, (Z)-9-(Cyclopropylmethyl)-2-(3-(2,3-difluorophenoxy)-6-(2-fluoro-2-(1-(pyridazin-4-yl)-1H-pyrazol-3-yl)vinyl)-2-(trifluoromethyl)phenyl)-2,9-diazaspiro[5.5]undecane], for which the IC50 was 20 to 200 nM at DGKα and ≤ 20 nM on DGKζ.

Consider `F/C(=C\c1ccc(OC2CCCCC2)c(C(F)(F)F)c1N1CCCC2(CCN(CC3CC3)CC2)C1)c1ccn(-c2ccnnc2)n1` [Example 15, (Z)-2-(3-(Cyclohexyloxy)-6-(2-fluoro-2-(1-(pyridazin-4-yl)-1H-pyrazol-3-yl)vinyl)-2-(trifluoromethyl)phenyl)-9-(cyclopropylmethyl)-2,9-diazaspiro[5.5]undecane], for which the figures for the IC50 at DGKα and at DGKζ were 20 to 200 nM and ≤ 20 nM, respectively.

Consider `CC(C)(O)CN1CCC2(CCCN(c3c(/C=C(\F)c4csc(-c5ccnnc5)n4)ccc(Oc4ccccn4)c3C(F)(F)F)C2)CC1` [Example 12, (Z)-1-(2-(6-(2-Fluoro-2-(2-(pyridazin-4-yl)thiazol-4-yl)vinyl)-3-(pyridin-2-yloxy)-2-(trifluoromethyl)phenyl)-2,9-diazaspiro[5.5]undecan-9-yl)-2-methylpropan-2-ol], for which the 50% inhibitory concentration (IC50) on DGKα and on DGKζ was ≤ 20 nM in each case.

Turning to `F/C(=C\c1ccc(Oc2ccccc2)c(C(F)(F)F)c1N1CCOC2(CCNCC2)C1)c1csc(-c2ccnnc2)n1` [Example 5, (Z)-4-(6-(2-Fluoro-2-(2-(pyridazin-4-yl)thiazol-4-yl)vinyl)-3-phenoxy-2-(trifluoromethyl)phenyl)-1-oxa-4,9-diazaspiro[5.5]undecane], the IC50 at DGKα and at DGKζ was ≤ 20 nM throughout.

`F/C(=C\c1ccc(Oc2ccccc2)c(C(F)(F)F)c1N1CCCC2(CCN(CC3CC3)CC2)C1)c1ccn(-c2ccnnc2)n1` [Example 21, (Z)-9-(Cyclopropylmethyl)-2-(6-(2-fluoro-2-(1-(pyridazin-4-yl)-1H-pyrazol-3-yl)vinyl)-3-phenoxy-2-(trifluoromethyl)phenyl)-2,9-diazaspiro[5.5]undecane]: the IC50 at DGKα was 20 to 200 nM; on DGKζ, ≤ 20 nM.

On to `F/C(=C\c1ccc(Oc2cccc(F)c2F)c(Cl)c1N1CCCC2(CCN(CC3CC3)CC2)C1)c1ccn(-c2ccnnc2)n1` [Example 22, (Z)-2-(2-Chloro-3-(2,3-difluorophenoxy)-6-(2-fluoro-2-(1-(pyridazin-4-yl)-1H-pyrazol-3-yl)vinyl)phenyl)-9-(cyclopropylmethyl)-2,9-diazaspiro[5.5]undecane], for which the results for the IC50 at DGKα and on DGKζ were ≤ 20 nM and 20 to 200 nM, respectively.

`F/C(=C\c1ccc(Oc2cccc(F)c2F)c(C(F)(F)F)c1N1CCCC2(CCN(CC3CC3)CC2)C1)c1csc(-c2ccnnc2)n1` [Example 11, (Z)-4-(2-(2-(9-(Cyclopropylmethyl)-2,9-diazaspiro[5.5]undecan-2-yl)-4-(2,3-difluorophenoxy)-3-(trifluoromethyl)phenyl)-1-fluorovinyl)-2-(pyridazin-4-yl)thiazole]: the IC50 on DGKα and on DGKζ was ≤ 20 nM throughout.

For `F/C(=C\c1ccc(Oc2ccccc2)c(C(F)(F)F)c1N1CCCC2(CCN(CC3CC3)CC2)C1)c1csc(-c2ccnnc2)n1` [Example 18, (Z)-4-(2-(2-(9-(Cyclopropylmethyl)-2,9-diazaspiro[5.5]undecan-2-yl)-4-phenoxy-3-(trifluoromethyl)phenyl)-1-fluorovinyl)-2-(pyridazin-4-yl)thiazole], the IC50 on DGKα was 20 to 200 nM; at DGKζ it was ≤ 20 nM.

As for `F/C(=C\c1ccc(Oc2ccccn2)c(C(F)(F)F)c1N1CCCC2(CCN(CC3CC3)CC2)C1)c1csc(-c2ccnnc2)n1` [Example 14, (Z)-4-(2-(2-(9-(Cyclopropylmethyl)-2,9-diazaspiro[5.5]undecan-2-yl)-4-(pyridin-2-yloxy)-3-(trifluoromethyl)phenyl)-1-fluorovinyl)-2-(pyridazin-4-yl)thiazole], the 50% inhibitory concentration (IC50) at DGKα and at DGKζ was ≤ 20 nM throughout.

For `F/C(=C\c1ccc(Oc2cccc(F)c2F)c(C(F)(F)F)c1N1CCCC2(CN(CC3CC3)C2)C1)c1ccn(-c2ccnnc2)n1` [Example 20, (Z)-2-(Cyclopropylmethyl)-6-(3-(2,3-difluorophenoxy)-6-(2-fluoro-2-(1-(pyridazin-4-yl)-1H-pyrazol-3-yl)vinyl)-2-(trifluoromethyl)phenyl)-2,6-diazaspiro[3.5]nonane], the IC50 is ≤ 20 nM at DGKα and 20 to 200 nM at DGKζ.

For `CCN1CCC2(CCCN(c3c(/C=C(\F)c4ccn(-c5ccnnc5)n4)ccc(Oc4ccccc4)c3C(F)(F)F)C2)CC1` [Example 24, (Z)-9-Ethyl-2-(6-(2-fluoro-2-(1-(pyridazin-4-yl)-1H-pyrazol-3-yl)vinyl)-3-phenoxy-2-(trifluoromethyl)phenyl)-2,9-diazaspiro[5.5]undecane], the values for the IC50 at DGKα and on DGKζ were 20 to 200 nM and ≤ 20 nM, respectively.

For the compound `NC[C@@H]1CCCN(c2c(/C=C(\F)c3csc(-c4ccnnc4)n3)ccc(Oc3ccccc3F)c2C(F)(F)F)C1` [Example 1, (S,Z)-(1-(6-(2-Fluoro-2-(2-(pyridazin-4-yl)thiazol-4-yl)vinyl)-3-(2-fluorophenoxy)-2-(trifluoromethyl)phenyl)piperidin-3-yl)methanamine], the IC50 on DGKα and at DGKζ was ≤ 20 nM in each case.

Turning to `CCN1CCC2(CC1)CN(c1c(/C=C(\F)c3csc(-c4ccnnc4)n3)ccc(Oc3ccccc3)c1C(F)(F)F)CCO2` [Example 6, (Z)-9-Ethyl-4-(6-(2-fluoro-2-(2-(pyridazin-4-yl)thiazol-4-yl)vinyl)-3-phenoxy-2-(trifluoromethyl)phenyl)-1-oxa-4,9-diazaspiro[5.5]undecane], the IC50 at DGKα is 20 to 200 nM; at DGKζ, ≤ 20 nM.

Consider `F/C(=C\c1ccc(Oc2ccccc2)c(C(F)(F)F)c1N1CCCC2(CCNCC2)C1)c1csc(N2CCC(F)(F)C2)n1` [Example 9, (Z)-2-(3,3-Difluoropyrrolidin-1-yl)-4-(1-fluoro-2-(4-phenoxy-2-(2,9-diazaspiro[5.5]undecan-2-yl)-3-(trifluoromethyl)phenyl)vinyl)thiazole], for which the IC50 on DGKα was 20 to 200 nM; on DGKζ, 200 to 2000 nM.

For the compound `CN(c1c(/C=C(\F)c2csc(-c3ccnnc3)n2)ccc(Oc2ccccc2F)c1C(F)(F)F)[C@H]1CCNC[C@H]1F` [Example 4, (3R,4S)-3-Fluoro-N-(6-((Z)-2-fluoro-2-(2-(pyridazin-4-yl)thiazol-4-yl)vinyl)-3-(2-fluorophenoxy)-2-(trifluoromethyl)phenyl)-N-methylpiperidin-4-amine], the half-maximal inhibitory concentration (IC50) on DGKα and at DGKζ was 20 to 200 nM each time.

`OCCN1CCC2(CCCN(c3c(/C=C(\F)c4csc(-c5ccnnc5)n4)ccc(Oc4ccccc4)c3C(F)(F)F)C2)CC1` [Example 23, (Z)-2-(2-(6-(2-Fluoro-2-(2-(pyridazin-4-yl)thiazol-4-yl)vinyl)-3-phenoxy-2-(trifluoromethyl)phenyl)-2,9-diazaspiro[5.5]undecan-9-yl)ethan-1-ol]: the values for the IC50 on DGKα and at DGKζ were 20 to 200 nM and ≤ 20 nM, respectively.
